Data reported in paper PMC7067850, “Identification of highly potent and selective inhibitor, TIPTP, of the p22phox-Rubicon axis as a therapeutic agent for rheumatoid arthritis” (Scientific Reports, 2020).

How the values were obtained:
NLRP3 inflammasome = NLRP3 inflammasome activation in LPS/ATP-treated BMDMs (immunoblot, ELISA); type: cell-based, mouse; conditions: NLRP3 inflammasome-activating stimuli (Fig. 3e, 3f)
Description: For immunoblotting, polypeptides were resolved by SDS-polyacrylamide gel electrophoresis and transferred to a PVDF membrane (Bio-Rad). […] Antibody binding was visualized by chemiluminescence (ECL; Millipore) and detected by a Vilber chemiluminescence analyzer (Fusion SL 3; Vilber Lourmat).
Cell culture supernatants, mice sera and synovial fluid were analyzed for cytokine content using the BD OptEIA ELISA set (BD Pharmingen) for the detection of TNF-α, IL-6, IL-1β, and IL-18. All assays were performed as recommended by the manufacturer.
Figure 3 TIPTP robustly suppresses LPS/ATP-mediated Rubicon-p22phox interaction and ROS-mediated inflammation. (a) Structure of the TIPTP. (b) MTT assay for cell viability. BMDMs were incubated with TIPTP for the indicated times at the indicated TIPTP concentrations (upper). WCLs were used for IB with α22phox, αRubicon, or αActin (lower). (c–f) LPS (100 ng/ml)-primed BMDMs were treated with compounds for 1 h, and then activated with ATP (1 mM) for 30 min. (c) NADPH oxidase activity. (d) FACS analysis for superoxide and hydrogen peroxide (upper). Quantitative analysis of mean fluorescence intensities of ROS (lower). (e) BMDMs were incubated with increasing concentrations of compound 1 and TIPTP (com 2) (***). IP with αRubicon, followed by IB with αp22phox, αBeclin-1, αUVRAG, αRubicon. […] (f) Culture supernatants were harvested and analyzed for cytokines by ELISA. […]

[1] = system: collagen antibody-induced arthritis; experiment: Collagen antibody-induced arthritis (CAIA) mouse model, mice transduced with Ad-Rubicon; type: in vivo
Description: Collagen antibody-induced arthritis mouse model was induced as previously described. Mice received a single‐dose intravenous injection of anti-type II collagen antibody cocktail (8 mg/mouse) (Arthrogen‐CIA Arthritogenic Monoclonal Antibody, no. 53010; Chondrex) on day −3 and an intraperitoneal injection of 100 μg of lipopolysaccharide on day 0 and were then monitored for the indicated times. Mice were sacrificed under anesthesia for the indicated times and knee joints were isolated. All animal-related procedures were reviewed and approved by the Institutional Animal Care and Use Committee of the Hanyang University (protocol 2017–0219). All animal experiments were performed in accordance with Korean Food and Drug Administration guidelines. […]
Figure 5 TIPTP protects Rubicon-expressed CAIA mice mortality. […] (a) The survival of CAIA mice was monitored for 15 days and mortality was measured for n = 10 mice per group. […] (b) Clinical arthritis score and swelling of paws, or (c) representative H&E staining of the ankle joints of each group were determined at 9 days of CAIA (left). […] Statistical significance was determined by two-way analysis of variance (ANOVA) with Tukey’s posttest; **P < 0.01 compared with Ad-Vector+Vehicle (a). […]
Arthritis mice were evaluated for disease progression three times a week as follows ^1,2. […]

C[C@@H](Oc1cccc(-n2cc3c(n2)CCCC3)c1)C(=O)Nc1nnc(C(F)(F)F)s1 [TIPTP, (R)-2-(3-(4,5,6,7-tetrahydro-2H-indazol-2-yl)phenoxy)-N-(5-(trifluoromethyl)-1,3,4-thiadiazol-2-yl)propanamide]
caspase-1 activation, and IL-1β and IL-18 maturation (NLRP3 inflammasome): significantly decreased
survival rate ([1]; CAIA mice transduced with Ad-Rubicon, TIPTP every 2 days intraperitoneal, monitored 15 days (Fig. 5a)): 90%
arthritic clinical scores, paw swelling, and histopathological evaluation vs vehicle ([1]; Rubicon-expressing and vector CAIA mice (Fig. 5b,c)): markedly decreased
